biological target: T1, rSNORF33 (Rattus norvegicus, UniProt Q923Y9); test: Intracellular cAMP release in rSNORF33-transfected COS-7 cells; type: cell-based; set-up: expressed in transfected cells; host or cells: COS-7 (transient); details: transiently transfected COS-7 cells; 3–8 experiments; read-out: Mean EC50 ± S.E.M., stimulation of rSNORF33 measured by intracellular cAMP release
Description: (§1) The receptor-mediated stimulation or inhibition of cyclic AMP (cAMP) formation may be assayed in cells expressing the mammalian receptors. Cells are plated in 96-well plates or other vessels and preincubated in a buffer such as HEPES buffered saline (NaCl (150 mM), CaCl2 (1 mM), KCl (5 mM), glucose (10 mM)) supplemented with a phosphodiesterase inhibitor such as 5 mM theophylline, with or without protease inhibitor cocktail (For example, a typical inhibitor cocktail contains 2 μg/ml aprotinin, […] leupeptin, and 10 μg/ml phosphoramidon.) for 20 min at 37° C., in 5% CO2. Test compounds are added with or without […] forskolin and incubated for an additional 10 min at 37° C. The medium is then aspirated and the reaction stopped by the addition of 100 mM HCl or other methods. The plates are stored at 4° C. for 15 min, and the cAMP content in the stopping solution is measured by radioimmunoassay. Radioactivity may be quantified using a gamma counter equipped with data reduction software. Specific modifications may be performed to optimize the assay for the receptor or to alter the detection method of cAMP.
(§2) COS-7 cells were transiently transfected with rSNORF33 gene using the calcium phosphate method and plated in 96-well plates. 48 hours after transfection, cells were washed twice with Dulbecco's phosphate buffered saline (PBS) supplemented with 10 mM HEPES, 10 mM glucose, 5 mM theophylline and 10 μM pargyline and were incubated in the same buffer for 20 min at 37° C., in […] 5% CO2. Test compounds were added and cells were incubated for an additional 10 min at 37° C. The medium was then aspirated and the reaction stopped by the addition of 100 mM HCl. The plates were stored at −20° C. for 2-5 days. For cAMP measurement, plates were thawed and the cAMP content in each well was measured by radioimmunoassay cAMP Scintillation Proximity Assay (Amersham Pharmacia Biotech). Radioactivity was quantified using microbeta Trilux counter (Wallac).

T1 sequence (Q923Y9 whole entry): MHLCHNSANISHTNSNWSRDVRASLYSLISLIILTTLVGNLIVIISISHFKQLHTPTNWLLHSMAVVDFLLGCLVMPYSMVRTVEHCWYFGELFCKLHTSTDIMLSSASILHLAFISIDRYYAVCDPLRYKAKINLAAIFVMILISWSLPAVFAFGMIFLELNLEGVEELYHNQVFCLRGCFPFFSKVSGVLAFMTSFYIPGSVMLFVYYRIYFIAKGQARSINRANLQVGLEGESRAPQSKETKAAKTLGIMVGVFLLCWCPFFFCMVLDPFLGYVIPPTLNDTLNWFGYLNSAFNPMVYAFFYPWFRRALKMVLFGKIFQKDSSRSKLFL

| SMILES | EC50 [nM] |
| --- | --- |
| NCCc1ccc(O)cc1 [Tyramine (TYR), Tyramine] | 9 ± 6 |
| NCC(O)c1ccc(O)cc1 (stereo not drawn) [Octopamine (OCT), Octopamine] | 135 ± 54 |
| NCCc1c[nH]c2ccccc12 [Tryptamine (T), Tryptamine] | 17 ± 4 |

biological target: T1, rSNORF33; test: [3H]-TYR binding (saturation and displacement) to rSNORF33-transfected COS-7 membranes; set-up: expressed in transfected cells; host or cells: COS-7 (transient); details: rSNORF33 in transfected COS-7 membranes; 2–4 experiments; read-out: Mean Ki ± S.D.M., displacement of [3H]-tyramine
Description: (§3) Radioligand binding assays were performed by diluting membranes prepared from cells expressing the receptor (with co-expression of the rat G-protein alpha S subunit for human SNORF33) in 25 mM Gly-Gly buffer (Sigma, pH=7.4 @ 0° C.) containing 5 mM ascorbate and 10 μM pargyline (final protein concentration in assay=100-300 μg/ml). Membranes were then incubated with either [^3H]-TYR (American Radiochemicals, specific activity 60 mCi/μmole) or [^3H]-T (Amersham, specific activity 98 mCi/μmole) in the presence or absence of competing ligands on ice for 30 min in a total volume of 250 μl in 96 well microtiter plates. The bound ligand was separated from free by filtration through GF/B filters presoaked in 0.5% polyethyleneimine (PEI), using Tomtec (Wallac) or Brandel Cell Harvester vacuum filtration device. After addition of Ready Safe (Beckman) scintillation fluid, bound radioactivity was quantitated using a Trilux (Wallac) scintillation counter (approximately 20% counting efficiency of bound counts). Data was fit to non-linear curves using GraphPad Prism.
(§4) In this manner, agonist or antagonist compounds that bind to the receptor may be identified as they inhibit the binding of the labeled ligand to the membrane protein of cells expressing the said receptor. Non-specific binding was defined as the amount of radioactivity remaining after incubation of membrane protein in the presence of 10 μM of the unlabeled amine corresponding to the radioligand used. In equilibrium saturation binding assays, membrane preparations or intact cells transfected with the receptor are incubated in the presence of increasing concentrations of the labeled compound to determine the binding affinity of the labeled ligand. The binding affinities of unlabeled compounds may be determined in equilibrium competition binding assays, using a fixed concentration of labeled compound in the presence of varying concentrations of the displacing ligands.

| SMILES | Ki [nM] |
| --- | --- |
| NCCc1ccc(O)cc1 [Tyramine (TYR), Tyramine] | 13 ± 4 |
| NCC(O)c1ccc(O)cc1 (stereo not drawn) [Octopamine (OCT), Octopamine] | 310 ± 71 |
| NCCc1c[nH]c2ccccc12 [Tryptamine (T), Tryptamine] | 70 ± 14 |

biological target: T2, hSNORF33 (Homo sapiens, UniProt Q96RJ0); test: Intracellular cAMP release in human SNORF33-transfected COS-7 cells; type: cell-based; set-up: expressed in transfected cells; host or cells: COS-7 (transient); details: transiently transfected COS-7 cells; read-out: Mean EC50 ± S.D.M., stimulation of human SNORF33 measured by intracellular cAMP release
T2 sequence (Q96RJ0 1-339): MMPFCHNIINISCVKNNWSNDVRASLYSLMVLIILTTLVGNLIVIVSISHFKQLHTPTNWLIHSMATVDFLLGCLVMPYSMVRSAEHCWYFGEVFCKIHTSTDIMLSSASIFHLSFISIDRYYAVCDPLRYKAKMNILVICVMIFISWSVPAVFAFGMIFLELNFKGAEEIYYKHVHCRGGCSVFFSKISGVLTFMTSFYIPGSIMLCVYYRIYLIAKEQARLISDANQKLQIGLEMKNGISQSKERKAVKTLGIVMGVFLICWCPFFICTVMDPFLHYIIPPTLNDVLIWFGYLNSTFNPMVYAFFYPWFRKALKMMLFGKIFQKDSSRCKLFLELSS
Description: as §1, §2

| SMILES | EC50 [nM] |
| --- | --- |
| NCCc1ccc(O)cc1 [Tyramine (TYR), Tyramine] | 214 ± 85 |
| NCC(O)c1ccc(O)cc1 (stereo not drawn) [Octopamine (OCT), Octopamine] | 4090 ± 95 |
| NCCc1c[nH]c2ccccc12 [Tryptamine (T), Tryptamine] | 24000 |

biological target: T2, hSNORF33; test: [3H]-TYR binding (saturation and displacement) to human SNORF33 COS-7 membranes; set-up: expressed in transfected cells; host or cells: COS-7 (membranes); details: human SNORF33 in transfected COS-7 membranes; read-out: Mean Ki ± S.D.M., displacement of [3H]-tyramine
Description: as §3, with “[^3H]-TYR and [^3H]-T binding assays were performed essentially as described by Mallard et al. (1992), with minor modifications. Radioligand” for “Radioligand”
as §4

| SMILES | Ki [nM] |
| --- | --- |
| NCCc1ccc(O)cc1 [Tyramine (TYR), Tyramine] | 51 ± 11 |
| NCC(O)c1ccc(O)cc1 (stereo not drawn) [Octopamine (OCT), Octopamine] | 417 ± 285 |
| NCCc1c[nH]c2ccccc12 [Tryptamine (T), Tryptamine] | 1130 ± 372 |
